“Also recorded” adds a separate entry of the source. Like-named read-outs stand apart in the source and are kept apart here. Non-standard residues stand in square brackets, D forms with d. Residues, ends and D or L forms follow the SMILES beside them. *: point of attachment. X1 = N=C(N)NCCC[C@H](CN)C(=O)*; β3hK = NCCCC[C@H](N)CC(=O)O
Assays:
[1] = Solubility of the peptides in water / aqueous buffer (NMR, CD samples); assay type: physicochemical; conditions: aqueous buffer, NMR / CD samples
Method: CD spectra were recorded on a Jasco 815 spectropolarimeter (Jasco Inc., Easton, Md.) over the wavelength range 190-260 nm, at 0.2 nm intervals and 10 nm·min^−1 scan speed. Peptides were dissolved at 50 μM concentration in a 10 mM sodium phosphate buffer at pH 7.4, using 0.1 cm path length quartz cells (Hellma, Mullheim, Germany). CD spectra were deconvoluted with CDFriend program in order to estimate the peptide secondary structure content.
NMR experiments were recorded on a 500 MHz Bruker Avance III spectrometer (Wissembourg, France) equipped with a TCI cryoprobe. NMR samples were prepared in 50 mM sodium succinate buffer, pH 5, using 2 mM peptide concentration. Sodium 2,2-dimethyl-2-silapentane-d6-5-sulfonate (Sigma Aldrich) was added at 0.1 mM concentration for chemical shift calibration and measurement of the solubilized peptide concentration. NMR experiments were processed with TOPSPIN 2.1 software (Bruker) and spectra were analyzed with Sparky program. ^1H, ^13C and ^15N resonances were assigned using 2D ^1H-^1H TOCSY (DIPSI2 isotropic scheme of 70 ms duration), 2D ^1H-^1H ROESY (300 ms mixing time), 2D ^1H-^13C HSQC, 2D ^1H-^15N HSQC, and 2D ^1H-^13C HMBC spectra. The complete ^1H, ^13C and ^15N NMR assignments of peptides 4N1K, PKT2, PKHB1 and 4NGG are provided in Tables S1-S4 (supporting information). […] The chemical shift deviations of Ha protons and Cα carbons were calculated as the differences between observed chemical shifts and random coil values reported in water. The conformational analysis of thrombospondin-1 was carried out on the crystal structure of a C-terminal fragment of human thrombospondin-1 using Pymol (Schrödinger) and Procheck programs. Predictions of NMR chemical shifts on the X-ray structure were carried out using SHIFTX2 program.

[2] = molecular target: T1, CD47 (membrane preparation from MEC-1 cells) (Homo sapiens, UniProt Q08722); assay: Binding affinity by biolayer interferometry (Octet RED96) on biotinylated MEC-1 cell membrane preparation; conditions: NPD = Non Pertinent Data
T1 construct: MEC-1 cell membrane preparation were biotinylated with the EZ-Link NHS-PEG4-Biotin kit; endogenous in cells; host or cells: MEC-1 cells (membrane preparation)
T1 sequence (Q08722 19-323): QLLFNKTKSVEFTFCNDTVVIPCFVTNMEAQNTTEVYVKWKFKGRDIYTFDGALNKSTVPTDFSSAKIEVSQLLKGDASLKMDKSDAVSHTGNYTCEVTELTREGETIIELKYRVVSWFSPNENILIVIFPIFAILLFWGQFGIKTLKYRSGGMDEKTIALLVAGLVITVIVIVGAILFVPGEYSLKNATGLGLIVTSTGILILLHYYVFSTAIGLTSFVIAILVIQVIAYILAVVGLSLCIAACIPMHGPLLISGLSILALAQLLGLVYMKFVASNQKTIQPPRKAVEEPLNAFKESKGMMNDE
Method: The binding affinities of peptides for a membrane preparation from MEC-1 cells were measured by biolayer interferometry on an Octet RED96 System (Pall FortéBio Corp., Menlo Park, Calif.).
The binding affinities of peptides for a membrane preparation from MEC-1 cells were measured by biolayer interferometry on an Octet RED96 System (Pall FortéBio Corp., Menlo Park, Calif.). This system monitors interference of light reflected from two sources (an internal reflection surface and the liquid/solid interface of a fiber optic sensor) to measure the rate of binding of molecules to the biosensor surface.
MEC-1 cell membrane preparation were biotinylated with the EZ-Link NHS-PEG4-Biotin kit from Thermo-Scientific. Biotinylated membranes were then loaded onto SuperStreptavidin (SSA) biosensors (Pall FortéBio Corp.) at empirically determined concentrations.
In order to highlight the pharmacological properties of these peptides, a systematic SAR study by the development of a binding assay allowing to the assessment of the affinity of the 4N1K analogues to CD47 was initiated. […] An Ala-scan to identify the pharmacophores of 4N1K was implemented.
The binding affinities of peptides for a MEC-1 cells membrane preparation were measured by biolayer interferometry on an Octet RED96 System (Pall FortéBio Corp., Menlo Park, Calif.). This system monitors interference of light reflected from two sources (an internal reflection surface and the liquid/solid interface of a fiber optic sensor) to measure the rate of binding of molecules to the biosensor surface. MEC-1 cells membrane preparation is biotinylated with the EZ-Link NHS-PEG4-Biotin kit from Thermo-Scientific and excess biotin is removed using desalting column from Thermo-Scientific. Biotinylated membranes are then loaded onto SuperStreptavidin (SSA) biosensors (Pall FortéBio Corp.) at empirically determined concentrations. […] Typically, the biosensors were pre-equilibrated in PBS containing either biotinylated membranes or biocytine 100 μg/mL. Biosensors are then equilibrated in assay buffer for 10 min, brought to baseline in assay buffer for 60 sec. and transferred to wells containing peptide in dose-response (association for 120 sec. and dissociation for 300 sec.). The double reference with either membrane-loaded biosensors without any peptide dose-response or biocytine-loaded biosensors with each peptide dose-response were run in parallel for background signal double subtractions. Binding kinetics were calculated using the FortéBio Data Analysis v8.2 software.

MEC-1 cells = assay: MEC-1 cell death (PCD) after 2 h peptide treatment; assay type: cell-based; conditions: for MEC-1 Cell Death (%) 2 h: Table 2, NPD = Non Pertinent Data
Method: Then the peptides structures were tested via NMR and X-ray. The peptides were also tested for their activity on MEC-1 and their KDs and Retention times on LCMS were determined.

[3] = molecular target: T2, CD47 (NT.115-labeled membrane) (Homo sapiens, UniProt Q08722); assay: Binding affinity by microscale thermophoresis (MST), NT.115-labeled membrane; conditions: Table 2; average of at least three independent experiments; NPD = Non Pertinent Data
T2 construct: the concentration of the NT.115-labeled membrane was kept constant; endogenous in cells
T2 sequence (Q08722 19-323): as above
Method: For all experiments the concentration of the NT.115-labeled membrane was kept constant, while the concentrations of the ligand (peptide) was varied. After a short incubation time (5 min) the samples were loaded into MST premium glass capillaries and the MST analysis was performed using the Monolith NT.115.

[4] = test system: B-chronic lymphocytic leukemia (CLL) primary cells; conditions: WO 2013/182650, cited from earlier work
[5] = Table 2, average of at least three independent experiments

Row | Compound | Kd (μM) (OR) [2, 5] | Kd (μM) (MST) [3] | solubility of peptide (in words) [1] | MEC-1 Cell Death (%) 2 h (MEC-1 cells) | further results
1 | CSCC[C@H](NC(=O)[C@@H](NC(=O)[C@@H](NC(=O)[C@H](Cc1ccc(O)cc1)NC(=O)[C@H](Cc1ccccc1)NC(=O)[C@H](CCCNC(=N)N)NC(C)=O)C(C)C)C(C)C)C(=O)N[C@@H](Cc1c[nH]c2ccccc12)C(=O)N[C@@H](CCCCN)C(N)=O [compound 1] |  |  |  | 27% | solubility of peptide (in words) ([1]; listed as PKT1): least soluble; also recorded: poorly soluble
2 | CSCC[C@H](NC(=O)[C@@H](NC(=O)[C@@H](NC(=O)[C@H](Cc1ccc(O)cc1)NC(=O)[C@H](Cc1ccccc1)NC(=O)[C@@H](CN)CCCNC(=N)N)C(C)C)C(C)C)C(=O)N[C@@H](Cc1c[nH]c2ccccc12)C(=O)N[C@@H](CCCCN)CC(=O)O [compound 3, (β^2hR)FYVVMW(β^3hK)] (X1-FYVVMW[β3hK]-OH) | NPD | NPD | poorly soluble | NPD | 
3 | CSCC[C@H](NC(=O)[C@@H](NC(=O)[C@@H](NC(=O)[C@H](Cc1ccc(O)cc1)NC(=O)[C@H](Cc1ccccc1)NC(=O)[C@H](CCCNC(=N)N)NC(=O)[C@H](N)CCCCN)C(C)C)C(C)C)C(=O)N[C@@H](Cc1c[nH]c2ccccc12)C(=O)N[C@@H](CCCCN)C(=O)N[C@H](CCCCN)C(=O)O [PKHB1, reference compound] |  |  |  | 63% | Kd ([2]; Table 2, average of at least three independent experiments, read-out: Kd (μM) (OR)): 43 ± 21 µM; Kd ([2]; Table 3, average of two or more measurements, read-out: Kd): 43 ± 21 µM; selective elimination of leukemic B-cells versus healthy B-lymphocytes [4]: specifically eliminates leukemic B-cells; MEC-1 Cell Death (%) 2 h, [peptides] = 200 μM (MEC-1 cells; Table 3, 200 μM peptide): 63%; Cell Death (MEC-1, 2 h) (MEC-1 cells; Table 4): 78%

Now from value to compound, other results behind:

Row | Kd (μM) (OR) [2, 5] | Kd (μM) (MST) [3] | Compound | solubility of peptide (in words) [1] | MEC-1 Cell Death (%) 2 h (MEC-1 cells) | further results
4 | NPD |  | CSCC[C@H](NC(=O)[C@@H](NC(=O)[C@@H](NC(=O)[C@H](Cc1ccc(O)cc1)NC(=O)[C@H](Cc1ccccc1)NC(=O)[C@@H](N)CCCNC(=N)N)C(C)C)C(C)C)C(=O)N[C@@H](Cc1c[nH]c2ccccc12)C(=O)N[C@@H](CCCCN)C(=O)O [4N1, reference compound] | least soluble; also recorded: poorly soluble | 13% | 
5 | NPD | NPD | CSCC[C@H](NC(=O)CNC(=O)CNC(=O)[C@H](Cc1ccc(O)cc1)NC(=O)[C@H](Cc1ccccc1)NC(=O)[C@H](CCCNC(=N)N)NC(=O)[C@@H](N)CCCCN)C(=O)N[C@@H](Cc1c[nH]c2ccccc12)C(=O)N[C@@H](CCCCN)C(=O)N[C@@H](CCCCN)C(=O)O [4NGG, reference compound] (H-KRFYGGMWKK-OH) |  | 2% | induction of PCD ([4]; soluble peptide): unable to induce PCD
